Among the data in ChEMBL document CHEMBL5465560, “Selectivity Literature for EUbOPEN Chemogenomic Library” (2024) are % of inhibition and % of control values, retold here.

Assay [1] deals with G protein-coupled receptor kinase 5 (Homo sapiens, UniProt P34947). The assay is described as follows: Selectivity interaction (SelectScreen profiling (Invitrogen)) EUB0000607a GRK5. Particulars: at 2 µM.
Assay [2] addresses Serine/threonine-protein kinase Nek4 (Homo sapiens) (UniProt P51957). The assay can be described thus: Selectivity interaction (KinomeScan (DiscoverX)) EUB0000607a NEK4. Particulars: at 10 µM.
In assay [3] the target is Calcium/calmodulin-dependent protein kinase type II subunit alpha (Homo sapiens, UniProt Q9UQM7). Particulars: at 10 µM.
Assay [4] relates to Epidermal growth factor receptor (Homo sapiens), P00533 [G719C]. The assay can be described thus: (§1) Selectivity interaction (KinomeScan (DiscoverX)) EUB0000655a EGFR. Particulars: at 10 µM.
Assay [5] relates to Epidermal growth factor receptor (Homo sapiens), P00533 [G719S]. The assay is described as §1. Particulars: at 10 µM.
Assay [6] has as its system Epidermal growth factor receptor (Homo sapiens), P00533 [L858R,T790M]. Described as §1. Particulars: at 10 µM.
The test system of assay [7] is Epidermal growth factor receptor (Homo sapiens), P00533 [L858R]. Described as §1. Particulars: at 10 µM.
Sequence of Epidermal growth factor receptor (Homo sapiens), P00533 [L858R] (P00533 whole entry L858R): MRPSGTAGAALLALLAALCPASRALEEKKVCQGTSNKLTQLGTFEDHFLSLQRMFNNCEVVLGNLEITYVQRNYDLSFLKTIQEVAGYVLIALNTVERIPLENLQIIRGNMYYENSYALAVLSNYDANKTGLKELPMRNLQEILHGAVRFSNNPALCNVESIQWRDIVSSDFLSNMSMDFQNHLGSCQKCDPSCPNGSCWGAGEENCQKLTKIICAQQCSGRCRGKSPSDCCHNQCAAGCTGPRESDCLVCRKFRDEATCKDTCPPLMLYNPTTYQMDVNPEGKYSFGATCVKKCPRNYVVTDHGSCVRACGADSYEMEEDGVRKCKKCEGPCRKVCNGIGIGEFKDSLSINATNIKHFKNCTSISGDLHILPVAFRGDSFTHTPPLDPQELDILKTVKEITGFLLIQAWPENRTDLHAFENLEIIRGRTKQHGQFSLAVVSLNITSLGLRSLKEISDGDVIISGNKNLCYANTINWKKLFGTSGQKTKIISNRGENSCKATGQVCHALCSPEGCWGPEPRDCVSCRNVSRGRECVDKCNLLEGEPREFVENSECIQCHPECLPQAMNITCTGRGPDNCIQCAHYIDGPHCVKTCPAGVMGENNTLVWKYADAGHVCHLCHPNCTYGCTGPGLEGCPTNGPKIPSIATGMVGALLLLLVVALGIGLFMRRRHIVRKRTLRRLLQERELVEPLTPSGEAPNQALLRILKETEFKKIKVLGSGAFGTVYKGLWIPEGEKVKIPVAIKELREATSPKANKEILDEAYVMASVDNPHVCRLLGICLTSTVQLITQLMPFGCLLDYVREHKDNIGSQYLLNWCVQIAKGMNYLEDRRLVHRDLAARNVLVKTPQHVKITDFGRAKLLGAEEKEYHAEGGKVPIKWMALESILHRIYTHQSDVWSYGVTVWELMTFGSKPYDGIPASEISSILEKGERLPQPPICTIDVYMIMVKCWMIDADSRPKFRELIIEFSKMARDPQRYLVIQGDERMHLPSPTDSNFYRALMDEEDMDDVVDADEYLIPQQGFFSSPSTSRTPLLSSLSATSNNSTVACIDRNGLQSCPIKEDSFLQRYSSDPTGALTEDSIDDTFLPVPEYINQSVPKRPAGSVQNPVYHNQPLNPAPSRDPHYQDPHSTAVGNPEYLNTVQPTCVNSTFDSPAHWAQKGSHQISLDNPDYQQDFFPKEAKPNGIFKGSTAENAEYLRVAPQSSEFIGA
Assay [8] has as its system Epidermal growth factor receptor (Homo sapiens), P00533 [L861Q]. The assay is described as §1. Particulars: at 10 µM.
The test system of assay [9] is Epidermal growth factor receptor (Homo sapiens), P00533 [T790M]. The assay is described as §1. Particulars: at 10 µM.
In assay [10] the test system is Epidermal growth factor receptor (Homo sapiens), P00533 [UNDEFINED MUTATION]. The assay is described as §1. Particulars: at 10 µM.
In assay [11] the target is Epidermal growth factor receptor (Homo sapiens, UniProt P00533). The description is as §1. Particulars: at 10 µM.
The target in assay [12] is T1, Atypical kinase COQ8B, mitochondrial (Homo sapiens) (UniProt Q96D53).
T1 sequence (whole entry): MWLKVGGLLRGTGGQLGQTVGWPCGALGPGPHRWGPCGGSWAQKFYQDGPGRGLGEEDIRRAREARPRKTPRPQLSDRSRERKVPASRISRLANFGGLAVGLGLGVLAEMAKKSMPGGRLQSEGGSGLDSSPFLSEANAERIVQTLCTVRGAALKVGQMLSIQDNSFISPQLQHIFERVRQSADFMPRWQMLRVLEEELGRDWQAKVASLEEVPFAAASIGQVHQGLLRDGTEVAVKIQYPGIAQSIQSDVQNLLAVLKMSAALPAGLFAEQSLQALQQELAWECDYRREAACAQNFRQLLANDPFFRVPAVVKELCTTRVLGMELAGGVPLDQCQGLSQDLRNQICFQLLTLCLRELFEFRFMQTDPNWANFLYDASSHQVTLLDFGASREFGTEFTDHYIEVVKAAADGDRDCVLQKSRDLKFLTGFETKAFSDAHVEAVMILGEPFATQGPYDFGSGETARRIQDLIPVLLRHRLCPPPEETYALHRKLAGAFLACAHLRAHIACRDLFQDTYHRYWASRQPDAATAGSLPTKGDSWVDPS
The assay can be described thus: Selectivity interaction (KinomeScan (DiscoverX)) EUB0001079a ADCK4. Particulars: at 1 µM.

In assay [13] the target is MAP/microtubule affinity-regulating kinase 3 (Homo sapiens) (UniProt P27448). The assay is described as follows: Selectivity interaction (ActivX KiNativ screen (kinase selectivity in THP-1 cell lysates)) EUB0000639a MARK3. The class given is subcellular. Particulars: lysate, at 0.04 µM.
Sequence of MAP/microtubule affinity-regulating kinase 3 (Homo sapiens) (P27448 whole entry, looked up): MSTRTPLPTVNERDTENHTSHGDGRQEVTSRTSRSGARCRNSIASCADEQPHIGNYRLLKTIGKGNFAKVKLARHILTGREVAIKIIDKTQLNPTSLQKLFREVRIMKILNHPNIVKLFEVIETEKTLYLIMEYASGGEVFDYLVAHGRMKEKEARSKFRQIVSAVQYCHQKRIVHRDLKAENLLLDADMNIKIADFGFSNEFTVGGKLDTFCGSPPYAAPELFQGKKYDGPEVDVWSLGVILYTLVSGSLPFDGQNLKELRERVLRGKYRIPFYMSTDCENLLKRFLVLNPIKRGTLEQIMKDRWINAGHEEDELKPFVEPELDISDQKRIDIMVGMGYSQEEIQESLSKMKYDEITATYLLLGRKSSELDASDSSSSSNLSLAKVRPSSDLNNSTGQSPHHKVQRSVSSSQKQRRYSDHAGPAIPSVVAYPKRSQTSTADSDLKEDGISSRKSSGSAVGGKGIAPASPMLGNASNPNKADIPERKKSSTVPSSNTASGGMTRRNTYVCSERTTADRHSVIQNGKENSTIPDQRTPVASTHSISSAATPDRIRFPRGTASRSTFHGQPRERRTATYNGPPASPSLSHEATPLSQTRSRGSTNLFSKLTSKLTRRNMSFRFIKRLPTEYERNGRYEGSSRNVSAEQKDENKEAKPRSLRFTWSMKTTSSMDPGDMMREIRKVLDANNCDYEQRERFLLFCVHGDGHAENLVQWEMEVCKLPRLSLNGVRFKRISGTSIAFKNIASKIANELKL
The target in assay [14] is Cyclin-dependent kinase 1 (Homo sapiens) (UniProt P06493). The assay is described as follows: Selectivity interaction (Kinase screening (Nanosyn)) EUB0000604a CDK1.
Sequence of Cyclin-dependent kinase 1 (Homo sapiens) (P06493 whole entry, looked up, canonical isoform): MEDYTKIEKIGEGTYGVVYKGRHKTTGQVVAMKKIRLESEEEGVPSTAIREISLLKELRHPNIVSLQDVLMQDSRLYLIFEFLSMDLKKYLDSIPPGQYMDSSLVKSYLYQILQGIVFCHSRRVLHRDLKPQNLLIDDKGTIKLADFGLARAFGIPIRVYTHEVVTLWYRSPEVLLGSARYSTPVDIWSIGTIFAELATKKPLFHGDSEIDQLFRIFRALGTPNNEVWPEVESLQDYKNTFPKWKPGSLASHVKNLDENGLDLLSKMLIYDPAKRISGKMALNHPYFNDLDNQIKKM
The target in assay [15] is T2, Phosphorylase b kinase gamma catalytic chain, liver/testis isoform (Homo sapiens) (UniProt P15735).
T2 sequence (whole entry): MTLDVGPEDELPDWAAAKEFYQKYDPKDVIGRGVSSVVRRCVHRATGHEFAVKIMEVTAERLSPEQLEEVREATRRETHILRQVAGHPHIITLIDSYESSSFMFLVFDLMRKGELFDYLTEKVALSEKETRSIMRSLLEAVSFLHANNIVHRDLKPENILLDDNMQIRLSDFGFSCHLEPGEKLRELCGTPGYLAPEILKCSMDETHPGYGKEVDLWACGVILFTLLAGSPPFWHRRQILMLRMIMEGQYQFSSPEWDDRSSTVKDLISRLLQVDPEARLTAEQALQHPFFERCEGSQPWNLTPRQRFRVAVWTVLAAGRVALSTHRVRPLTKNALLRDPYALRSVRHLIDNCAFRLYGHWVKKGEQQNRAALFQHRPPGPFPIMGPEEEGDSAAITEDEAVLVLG
The assay is described as follows: Selectivity interaction (Kinase screening (Nanosyn)) EUB0000604a PHKG2.

Assay [16] addresses Serine/threonine-protein kinase MARK2 (Homo sapiens) (UniProt Q7KZI7). Particulars: at 10 µM.
Assay [17] concerns the target T3, Serine/threonine-protein kinase D2 (Homo sapiens) (UniProt Q9BZL6).
T3 sequence (whole entry): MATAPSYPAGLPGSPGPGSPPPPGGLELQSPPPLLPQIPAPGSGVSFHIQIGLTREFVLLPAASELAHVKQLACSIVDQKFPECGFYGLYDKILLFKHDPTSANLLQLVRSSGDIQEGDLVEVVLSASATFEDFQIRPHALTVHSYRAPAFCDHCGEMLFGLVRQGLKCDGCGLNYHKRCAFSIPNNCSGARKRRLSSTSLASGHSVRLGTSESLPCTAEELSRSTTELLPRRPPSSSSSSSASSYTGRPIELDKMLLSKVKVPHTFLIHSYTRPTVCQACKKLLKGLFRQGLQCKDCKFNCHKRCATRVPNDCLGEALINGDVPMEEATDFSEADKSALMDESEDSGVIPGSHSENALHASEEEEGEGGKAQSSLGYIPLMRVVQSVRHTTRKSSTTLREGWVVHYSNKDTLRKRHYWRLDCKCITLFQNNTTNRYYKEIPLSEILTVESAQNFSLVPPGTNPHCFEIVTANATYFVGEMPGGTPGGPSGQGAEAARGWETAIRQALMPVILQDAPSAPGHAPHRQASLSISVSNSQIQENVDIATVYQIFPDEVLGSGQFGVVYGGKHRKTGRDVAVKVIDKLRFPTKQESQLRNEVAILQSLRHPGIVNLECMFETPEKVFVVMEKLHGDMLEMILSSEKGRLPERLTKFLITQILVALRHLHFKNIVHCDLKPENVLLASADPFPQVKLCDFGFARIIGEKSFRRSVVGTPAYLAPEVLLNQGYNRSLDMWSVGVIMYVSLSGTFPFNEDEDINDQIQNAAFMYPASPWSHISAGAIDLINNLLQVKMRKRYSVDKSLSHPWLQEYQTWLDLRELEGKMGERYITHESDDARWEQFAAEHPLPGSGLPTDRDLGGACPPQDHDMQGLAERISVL
The assay can be described thus: Selectivity interaction (KinomeScan (DiscoverX)) EUB0001049a PRKD2. Particulars: at 1 µM.

Assay [18] has as its target Serine/threonine-protein kinase pim-3 (Homo sapiens) (UniProt Q86V86). The assay is described as follows: Selectivity interaction (KinomeScan (DiscoverX)) EUB0000695a PIM3. Particulars: at 100 nM.
Assay [19] has as its target Tyrosine-protein kinase receptor Tie-1 (Homo sapiens) (UniProt P35590). The assay is described as follows: Selectivity interaction (KinomeScan (DiscoverX)) EUB0000695a TIE1. Particulars: at 100 nM.
In assay [20] the target is RAC-beta serine/threonine-protein kinase (Homo sapiens) (UniProt P31751). The assay can be described thus: Selectivity interaction (ProQinase) EUB0000171b AKT2.
Sequence of RAC-beta serine/threonine-protein kinase (Homo sapiens) (P31751 whole entry): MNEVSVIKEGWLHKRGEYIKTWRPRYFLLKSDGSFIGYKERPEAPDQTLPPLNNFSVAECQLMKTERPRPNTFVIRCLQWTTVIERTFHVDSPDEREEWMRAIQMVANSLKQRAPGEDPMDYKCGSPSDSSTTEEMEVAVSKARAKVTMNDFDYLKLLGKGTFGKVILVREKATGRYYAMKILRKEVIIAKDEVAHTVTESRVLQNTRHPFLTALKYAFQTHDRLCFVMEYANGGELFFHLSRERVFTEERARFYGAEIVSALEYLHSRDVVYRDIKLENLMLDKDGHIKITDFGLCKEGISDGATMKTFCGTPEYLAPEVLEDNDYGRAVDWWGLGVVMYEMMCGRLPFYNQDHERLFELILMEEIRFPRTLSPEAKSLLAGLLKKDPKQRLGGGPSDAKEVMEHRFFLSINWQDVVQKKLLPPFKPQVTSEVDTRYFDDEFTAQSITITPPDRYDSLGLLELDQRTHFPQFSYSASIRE

Sequence of Tyrosine-protein kinase receptor Tie-1 (Homo sapiens) (P35590 whole entry): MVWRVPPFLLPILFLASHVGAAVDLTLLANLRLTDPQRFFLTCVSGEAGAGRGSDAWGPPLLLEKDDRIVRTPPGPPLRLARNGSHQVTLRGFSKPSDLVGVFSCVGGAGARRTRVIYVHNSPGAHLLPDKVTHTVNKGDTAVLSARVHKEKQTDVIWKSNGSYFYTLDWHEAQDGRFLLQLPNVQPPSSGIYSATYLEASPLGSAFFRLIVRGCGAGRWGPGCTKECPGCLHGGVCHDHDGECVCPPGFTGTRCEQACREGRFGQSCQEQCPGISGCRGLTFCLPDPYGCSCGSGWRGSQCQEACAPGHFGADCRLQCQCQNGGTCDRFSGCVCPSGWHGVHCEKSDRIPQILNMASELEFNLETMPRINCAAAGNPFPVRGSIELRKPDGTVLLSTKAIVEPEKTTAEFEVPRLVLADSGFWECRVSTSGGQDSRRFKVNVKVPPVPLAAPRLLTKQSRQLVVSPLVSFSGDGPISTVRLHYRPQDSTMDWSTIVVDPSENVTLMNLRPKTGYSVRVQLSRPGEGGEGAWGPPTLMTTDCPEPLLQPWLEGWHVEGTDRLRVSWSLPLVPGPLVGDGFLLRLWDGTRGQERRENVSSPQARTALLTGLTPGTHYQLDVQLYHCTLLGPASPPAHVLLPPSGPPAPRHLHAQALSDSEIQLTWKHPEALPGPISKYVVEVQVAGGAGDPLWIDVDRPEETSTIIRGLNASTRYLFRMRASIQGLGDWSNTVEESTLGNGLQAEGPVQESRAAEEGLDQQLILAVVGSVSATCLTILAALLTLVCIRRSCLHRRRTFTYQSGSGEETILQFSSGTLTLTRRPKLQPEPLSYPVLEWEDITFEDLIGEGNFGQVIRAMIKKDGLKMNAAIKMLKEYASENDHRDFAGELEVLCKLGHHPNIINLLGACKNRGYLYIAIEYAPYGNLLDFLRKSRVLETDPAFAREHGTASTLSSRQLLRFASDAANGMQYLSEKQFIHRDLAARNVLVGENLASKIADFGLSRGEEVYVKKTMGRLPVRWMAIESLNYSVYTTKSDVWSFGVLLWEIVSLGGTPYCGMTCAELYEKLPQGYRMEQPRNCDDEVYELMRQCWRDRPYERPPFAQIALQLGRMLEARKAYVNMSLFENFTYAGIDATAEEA
Sequence of Serine/threonine-protein kinase Nek4 (Homo sapiens) (P51957 whole entry, looked up): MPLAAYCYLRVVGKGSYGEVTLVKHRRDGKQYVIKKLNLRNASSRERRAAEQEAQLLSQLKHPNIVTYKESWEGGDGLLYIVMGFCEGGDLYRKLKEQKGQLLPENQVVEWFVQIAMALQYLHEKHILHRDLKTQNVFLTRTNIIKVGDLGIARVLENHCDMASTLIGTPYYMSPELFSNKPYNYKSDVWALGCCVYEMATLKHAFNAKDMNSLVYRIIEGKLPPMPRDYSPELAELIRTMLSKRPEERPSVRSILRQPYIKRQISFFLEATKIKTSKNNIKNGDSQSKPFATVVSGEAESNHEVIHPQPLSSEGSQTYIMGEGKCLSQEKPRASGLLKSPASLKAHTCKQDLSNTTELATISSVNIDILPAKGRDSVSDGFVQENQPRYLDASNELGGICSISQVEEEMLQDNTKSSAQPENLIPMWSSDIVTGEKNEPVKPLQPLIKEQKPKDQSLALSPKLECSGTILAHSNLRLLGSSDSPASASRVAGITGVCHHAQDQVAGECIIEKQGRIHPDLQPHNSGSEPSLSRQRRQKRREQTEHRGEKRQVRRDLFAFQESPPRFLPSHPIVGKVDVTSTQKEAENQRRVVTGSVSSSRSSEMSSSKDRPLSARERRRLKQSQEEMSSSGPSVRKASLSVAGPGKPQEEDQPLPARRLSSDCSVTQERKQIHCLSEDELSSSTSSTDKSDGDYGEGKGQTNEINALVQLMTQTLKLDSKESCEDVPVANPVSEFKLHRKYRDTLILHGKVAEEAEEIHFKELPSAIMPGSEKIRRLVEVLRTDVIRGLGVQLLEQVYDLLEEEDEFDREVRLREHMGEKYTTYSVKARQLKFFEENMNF

Consider `CNC(=O)Nc1ccc(-c2nc(N3CC4CCC(C3)O4)c3cnn(C4CCC5(CC4)OCCO5)c3n2)cc1`, for which the % of inhibition in assay [1] is -4%. Besides, the % of control in assay [2] was 82%.
In the case of `Cc1cc([C@@H](C)Nc2ccccc2C(=O)O)c2nc(N3CCOCC3)cc(=O)n2c1` [AZD-6482], in assay [3], the % of control worked out at 75%.
On to `CN(C)CCOc1ccc(-c2nc(-c3ccncc3)c(-c3ccc4c(c3)CC/C4=N\O)[nH]2)cc1`, for which the % of control in assay [4] came out at 59%; in assay [5], 70%; in assay [6] it was 93%; in assay [7], 54%; in assay [8] it was 34%; in assay [9] it was 34%. The % of control came out at 100% in assay [10] and 95% in assay [11].
`Nc1cnc(N2CCc3cc(S(=O)(=O)Nc4c(F)cc(Cl)cc4F)cc(N4CCCC4=O)c32)nc1` [TP-020n] showed a % of control in [12] of 100%.
For `CC[C@@H]1[C@H](F)C(=O)N[C@@H]1COc1nccc2cc(C(N)=O)c(OC)cc12` [ZIMLOVISERTIB], the % of inhibition in assay [13] was -13.3%.
For `Cc1cnc(Nc2ccc(F)cc2Cl)nc1-c1c[nH]c(C(=O)N[C@H](CO)c2cccc(Cl)c2)c1`, the % of inhibition in assay [14] worked out at 7%; in [15], 4%.
In assay [16], `CCN(CC)CCCCNc1ncc2cc(-c3cc(OC)cc(OC)c3)c(NC(=O)NC(C)(C)C)nc2n1` showed a % of control of 100%.
As to `COc1cc(Nc2nc(C)cc(-c3cnn4nc(OC)ccc34)n2)cc(C(F)(F)F)c1`, in assay [17], the % of control turned out to be 100%.
Take `Cc1cc(F)c(C(=O)Nc2cccc(-c3nncn3C(C)C)n2)cc1-n1cnc(C2CC2)c1`: the % of control in assay [18] worked out at 92%; in assay [19] it was 87%.
For `C=CC(=O)Nc1cccc(C(=O)Nc2ccc(Nc3cc(-c4[nH]c(SC)nc4C)ccn3)cc2)c1`, the figures for the % of control in [20] (at 1 µM) and in assay [20] (at 5 µM) were 92% and 78%, respectively.
